Source: the NIST ThermoML archive (doi:10.1016/j.jct.2010.09.008)

What was measured:
[1] = xn = mol fraction of the nth substance listed; conditions: 101.3 kPa, Liquid, Vibrating tube method
[2] = relative permittivity at zero frequency (dimensionless); xn = mol fraction of the nth substance listed; conditions: 101.3 kPa, Liquid, AC Method
[3] = relative permittivity at zero frequency (dimensionless); conditions: 101.33 kPa, Liquid, AC method
[4] = 101.33 kPa, Liquid, Vibrating tube method

COCCOCCOCCOCCOC [2,5,8,11,14-pentaoxapentadecane] + CCCCCCC
Conditions	mass density, [1] [kg/m3]	relative permittivity at zero frequency, [2]
288.15 K, x2 = 0.0498	–	7.74
288.15 K, x2 = 0.0505	1004.42	–
288.15 K, x2 = 0.0975	993.3	–
288.15 K, x2 = 0.0999	–	7.42
288.15 K, x2 = 0.1982	968.25	–
288.15 K, x2 = 0.2001	–	6.79
288.15 K, x2 = 0.3	941.07	6.15
288.15 K, x2 = 0.3985	–	5.52
288.15 K, x2 = 0.4	912.66	–
288.15 K, x2 = 0.5009	881.97	–
288.15 K, x2 = 0.5076	–	4.82
288.15 K, x2 = 0.6017	848.59	–
288.15 K, x2 = 0.6033	–	4.2
288.15 K, x2 = 0.6931	816.13	–
288.15 K, x2 = 0.7044	–	3.58
288.15 K, x2 = 0.7998	775.06	–
288.15 K, x2 = 0.8028	–	2.99
288.15 K, x2 = 0.8972	734.27	–
288.15 K, x2 = 0.8985	–	2.45
288.15 K, x2 = 0.8994	–	2.45
288.15 K, x2 = 0.9466	712.33	–
288.15 K, x2 = 0.9495	–	2.19
298.15 K, x2 = 0.0496	–	7.49
298.15 K, x2 = 0.0499	995.11	–
298.15 K, x2 = 0.0996	983.28	–
298.15 K, x2 = 0.1016	–	7.19
298.15 K, x2 = 0.1994	–	6.58
298.15 K, x2 = 0.1995	958.5	–
298.15 K, x2 = 0.2961	932.8	–
298.15 K, x2 = 0.299	–	5.97
298.15 K, x2 = 0.4031	902.6	–
298.15 K, x2 = 0.406	–	5.31
298.15 K, x2 = 0.4975	873.81	–
298.15 K, x2 = 0.5037	–	4.7
298.15 K, x2 = 0.6024	–	4.1
298.15 K, x2 = 0.6043	838.65	–
298.15 K, x2 = 0.6975	805.52	–
298.15 K, x2 = 0.7027	–	3.51
298.15 K, x2 = 0.8001	–	2.95
298.15 K, x2 = 0.8006	765.91	–
298.15 K, x2 = 0.8982	725.23	–
298.15 K, x2 = 0.9013	–	2.41
298.15 K, x2 = 0.948	703.4	–
298.15 K, x2 = 0.9499	–	2.16
308.15 K, x2 = 0.0469	986.65	–
308.15 K, x2 = 0.0503	–	7.25
308.15 K, x2 = 0.0979	974.59	–
308.15 K, x2 = 0.1003	–	6.95
308.15 K, x2 = 0.1976	949.94	–
308.15 K, x2 = 0.201	–	6.36
308.15 K, x2 = 0.2944	924.23	–
308.15 K, x2 = 0.2949	–	5.82
308.15 K, x2 = 0.3006	922.61	–
308.15 K, x2 = 0.3924	–	5.24
308.15 K, x2 = 0.404	893.13	–
308.15 K, x2 = 0.4956	865.23	–
308.15 K, x2 = 0.5048	–	4.58
308.15 K, x2 = 0.6018	830.49	–
308.15 K, x2 = 0.6066	–	3.98
308.15 K, x2 = 0.6965	796.89	–
308.15 K, x2 = 0.7117	–	3.38
308.15 K, x2 = 0.7981	758.07	–
308.15 K, x2 = 0.7999	–	2.9
308.15 K, x2 = 0.8986	716.39	–
308.15 K, x2 = 0.8988	–	2.38
308.15 K, x2 = 0.9479	694.69	–
308.15 K, x2 = 0.9491	–	2.14

CCCCCCC [heptane]
Conditions	mass density, 288.15 K [kg/m3]	mass density, 298.15 K [kg/m3]	mass density, 308.15 K [kg/m3]	relative permittivity at zero frequency, 288.15 K	relative permittivity at zero frequency, 298.15 K	relative permittivity at zero frequency, 308.15 K
[3]	–	–	–	1.94	1.93	1.92
[4]	688.03	679.58	671.03	–	–	–

COCCOCCOCCOC [2,5,8,11-tetraoxadodecane] + CCCCCCC
Conditions	mass density [kg/m3]	relative permittivity at zero frequency
[1], 288.15 K, x2 = 0.0478	977.7	–
[1], 288.15 K, x2 = 0.1018	963.5	–
[1], 288.15 K, x2 = 0.2008	936.93	–
[1], 288.15 K, x2 = 0.3046	908.26	–
[1], 288.15 K, x2 = 0.4046	879.55	–
[1], 288.15 K, x2 = 0.502	850.68	–
[1], 288.15 K, x2 = 0.5988	821.04	–
[1], 288.15 K, x2 = 0.6937	791	–
[1], 288.15 K, x2 = 0.7981	756.91	–
[1], 288.15 K, x2 = 0.8992	722.88	–
[1], 288.15 K, x2 = 0.9471	706.43	–
[1], 298.15 K, x2 = 0.0478	968.24	–
[1], 298.15 K, x2 = 0.1018	954.08	–
[1], 298.15 K, x2 = 0.2008	927.56	–
[1], 298.15 K, x2 = 0.3046	898.85	–
[1], 298.15 K, x2 = 0.4046	870.31	–
[1], 298.15 K, x2 = 0.502	841.51	–
[1], 298.15 K, x2 = 0.5988	811.96	–
[1], 298.15 K, x2 = 0.6937	782.03	–
[1], 298.15 K, x2 = 0.7981	748.1	–
[1], 298.15 K, x2 = 0.8992	714.23	–
[1], 298.15 K, x2 = 0.9471	697.88	–
[1], 308.15 K, x2 = 0.0478	958.76	–
[1], 308.15 K, x2 = 0.1018	944.65	–
[1], 308.15 K, x2 = 0.2008	918.17	–
[1], 308.15 K, x2 = 0.3046	889.51	–
[1], 308.15 K, x2 = 0.4046	861.04	–
[1], 308.15 K, x2 = 0.502	832.28	–
[1], 308.15 K, x2 = 0.5988	802.84	–
[1], 308.15 K, x2 = 0.6937	773	–
[1], 308.15 K, x2 = 0.7981	739.22	–
[1], 308.15 K, x2 = 0.8992	705.5	–
[1], 308.15 K, x2 = 0.9471	689.25	–
[2], 288.15 K, x2 = 0.0502	–	7.53
[2], 288.15 K, x2 = 0.0996	–	7.18
[2], 288.15 K, x2 = 0.2037	–	6.44
[2], 288.15 K, x2 = 0.3128	–	5.7
[2], 288.15 K, x2 = 0.3994	–	5.13
[2], 288.15 K, x2 = 0.5007	–	4.49
[2], 288.15 K, x2 = 0.6027	–	3.88
[2], 288.15 K, x2 = 0.7014	–	3.32
[2], 288.15 K, x2 = 0.8007	–	2.81
[2], 288.15 K, x2 = 0.8993	–	2.35
[2], 288.15 K, x2 = 0.9502	–	2.14
[2], 298.15 K, x2 = 0.0511	–	7.28
[2], 298.15 K, x2 = 0.0992	–	6.94
[2], 298.15 K, x2 = 0.2012	–	6.26
[2], 298.15 K, x2 = 0.3025	–	5.59
[2], 298.15 K, x2 = 0.4095	–	4.91
[2], 298.15 K, x2 = 0.5014	–	4.36
[2], 298.15 K, x2 = 0.6006	–	3.79
[2], 298.15 K, x2 = 0.6989	–	3.26
[2], 298.15 K, x2 = 0.7898	–	2.81
[2], 298.15 K, x2 = 0.902	–	2.31
[2], 298.15 K, x2 = 0.9501	–	2.11
[2], 308.15 K, x2 = 0.0504	–	7.04
[2], 308.15 K, x2 = 0.1008	–	6.71
[2], 308.15 K, x2 = 0.2074	–	6.01
[2], 308.15 K, x2 = 0.3092	–	5.37
[2], 308.15 K, x2 = 0.4042	–	4.8
[2], 308.15 K, x2 = 0.5048	–	4.22
[2], 308.15 K, x2 = 0.6022	–	3.69
[2], 308.15 K, x2 = 0.7071	–	3.15
[2], 308.15 K, x2 = 0.801	–	2.7
[2], 308.15 K, x2 = 0.9016	–	2.28
[2], 308.15 K, x2 = 0.9514	–	2.09

COCCOCCOC [2,5,8-trioxanonane]
Conditions	mass density, 288.15 K [kg/m3]	mass density, 298.15 K [kg/m3]	mass density, 308.15 K [kg/m3]	relative permittivity at zero frequency, 288.15 K	relative permittivity at zero frequency, 298.15 K	relative permittivity at zero frequency, 308.15 K
[3]	–	–	–	7.69	7.4	7.12
[4]	949.34	939.35	929.36	–	–	–

COCCOCCOCCOCCOC [2,5,8,11,14-pentaoxapentadecane]
Conditions	mass density, 288.15 K [kg/m3]	mass density, 298.15 K [kg/m3]	mass density, 308.15 K [kg/m3]	relative permittivity at zero frequency, 288.15 K	relative permittivity at zero frequency, 298.15 K	relative permittivity at zero frequency, 308.15 K
[3]	–	–	–	8.04	7.78	7.55
[4]	1015.96	1006.68	997.27	–	–	–
